From publication PMC2819846 (Mutation research, 2008)

Legend:
[1] = system: Salmonella TA100; assay: Salmonella plate-incorporation mutagenicity assay, strain TA100; type: cell-based
[2] = system: strain TA100; type: cell-based, Salmonella; details: TA100 liquid-suspension, 10 µg/ml
[3] = incubation with rat liver microsomes; cited from earlier work
[4] = system: DNA from Salmonella TA100; assay: Stable DNA adducts by 32P-postlabeling in DNA of treated TA100; type: cell-based; details: TA100, 10 µg/ml; DMSO 0.024 ± 0.000
[5] = system: Salmonella TA98; assay: Salmonella plate-incorporation mutagenicity assay, strain TA98, with S9 mix; type: cell-based
[6] = system: Salmonella; details: cited from earlier work
[7] = system: Salmonella TA104; assay: Salmonella plate-incorporation mutagenicity assay, strain TA104, with S9 mix; type: cell-based
[8] = system: DNA from Salmonella TA100; assay: Abasic sites by aldehydic-site assay in DNA of treated TA100; type: cell-based; details: TA100, 10 µg/ml; DMSO 5.9 ± 0.33

In the case of `c1ccc2c(c1)ccc1ccc3sccc3c12` [P[3,4-b]T, Phenanthro[3,4,-b]thiophene], the Rev/plate ([1]; TA100 +S9, Test 2, 0.05 µg/plate, zero-dose 84/78/80) is reported as 131/124, the Rev/plate ([1]; TA100 +S9, Test 2, 0.1 µg/plate, zero-dose 84/78/80) is reported as 120/128 and the Rev/plate ([1]; TA100 +S9, Test 2, 0.25 µg/plate, zero-dose 84/78/80) is reported as 235/243. For the same compound, the Rev/plate ([1]; TA100 +S9, Test 2, 0.5 µg/plate, zero-dose 84/78/80) was 389/354, the Rev/plate ([1]; TA100 +S9, Test 3, 0.05 µg/plate, zero-dose 127/118/125) was 151/163 and the Rev/plate ([1]; TA100 +S9, Test 3, 0.1 µg/plate, zero-dose 127/118/125) was 187/201. The Rev/plate ([1]; TA100 +S9, Test 3, 0.25 µg/plate, zero-dose 127/118/125) was 344/311, the Rev/plate ([1]; TA100 +S9, Test 3, 0.5 µg/plate, zero-dose 127/118/125) was 450/508 and the Rev/plate ([1]; TA100 +S9, Test 4, 0.05 µg/plate, zero-dose 112/140/115) was 144/123. The Rev/plate ([1]; TA100 +S9, Test 4, 0.1 µg/plate, zero-dose 112/140/115) was 159/169, the Rev/plate ([1]; TA100 +S9, Test 4, 0.25 µg/plate, zero-dose 112/140/115) was 216/227 and the Rev/plate ([1]; TA100 +S9, Test 4, 0.5 µg/plate, zero-dose 112/140/115) was 333/364. The Rev/plate ([1]; TA100 +S9, Test 5, 0.05 µg/plate, zero-dose 102/119/99) was 136/140, the Rev/plate ([1]; TA100 +S9, Test 5, 0.1 µg/plate, zero-dose 102/119/99) was 175/132 and the Rev/plate ([1]; TA100 +S9, Test 5, 0.25 µg/plate, zero-dose 102/119/99) was 237/166. The Rev/plate ([1]; TA100 +S9, Test 5, 0.5 µg/plate, zero-dose 102/119/99) was 366/305, the “Mutagenic potency, Revertants/µg ± S.E., TA100” value ([1]; plate-incorporation, +S9) was 550 ± 61 rev/µg and the “Mutagenicity call TA100” value ([1]; plate-incorporation, +S9) was “(+) (Called mutagenic (+) based on showing reproducible, dose-related increases in rev/plate that reached or exceeded 2-fold relative to zero-dose controls)”. The “Fold increase in mutant frequency relative to DMSO-treated cells” value [2] was 5.3 fold, the “Rev/10^6 survivors” value ([2]; DMSO 0.8) was 4.3 Rev/10^6 survivors and the Percent survival ([2]; DMSO 100) was 24%. The “Major relatively nonpolar metabolite(s), share of the total metabolites” value [3] was 80–96%, the “Stable adducts/10^8 nucleotides ± S.E” value [4] was 0.090 ± 0.007 adducts/10^8 nucleotides and the Rev/plate ([5]; TA98 +S9, Test 1, 2 µg/plate, zero-dose 33/40/39) was 81 rev/plate. It also gave a Rev/plate ([5]; TA98 +S9, Test 1, 5 µg/plate, zero-dose 33/40/39) of 80 rev/plate, a Rev/plate ([5]; TA98 +S9, Test 1, 10 µg/plate, zero-dose 33/40/39) of 62 rev/plate and a Rev/plate ([5]; TA98 +S9, Test 1, 20 µg/plate, zero-dose 33/40/39) of 54 rev/plate. The Rev/plate ([5]; TA98 +S9, Test 1, 40 µg/plate, zero-dose 33/40/39) was 60 rev/plate, the Rev/plate ([5]; TA98 +S9, Test 1, 80 µg/plate, zero-dose 33/40/39) was 55 rev/plate and the Rev/plate ([5]; TA98 +S9, Test 2, 0.05 µg/plate, zero-dose 43/41/30) was 30/40. The Rev/plate ([5]; TA98 +S9, Test 2, 0.1 µg/plate, zero-dose 43/41/30) was 31/33, the Rev/plate ([5]; TA98 +S9, Test 2, 0.25 µg/plate, zero-dose 43/41/30) was 33/32 and the Rev/plate ([5]; TA98 +S9, Test 2, 0.5 µg/plate, zero-dose 43/41/30) was 58/34. The Rev/plate ([5]; TA98 +S9, Test 3, 0.05 µg/plate, zero-dose 49/50/50) was 57/49, the Rev/plate ([5]; TA98 +S9, Test 3, 0.1 µg/plate, zero-dose 49/50/50) was 50/51 and the Rev/plate ([5]; TA98 +S9, Test 3, 0.25 µg/plate, zero-dose 49/50/50) was 40/63. For the same compound, the Rev/plate ([5]; TA98 +S9, Test 3, 0.5 µg/plate, zero-dose 49/50/50) was 66/69, the “Mutagenic potency, Revertants/µg ± S.E., TA98” value ([5]; plate-incorporation, +S9) was 0.2 ± 0.2 rev/µg and the “Reported Mutagenicity” value [6] was “mutagenic”. The Rev/plate ([7]; TA104 +S9, Test 2, 0.5 µg/plate, zero-dose 276/260/270) was 335/385, the Rev/plate ([7]; TA104 +S9, Test 2, 1 µg/plate, zero-dose 276/260/270) was 461/542 and the Rev/plate ([7]; TA104 +S9, Test 2, 2 µg/plate, zero-dose 276/260/270) was 569/553. The Rev/plate ([7]; TA104 +S9, Test 2, 5 µg/plate, zero-dose 276/260/270) was 582/601, the Rev/plate ([7]; TA104 +S9, Test 3, 0.5 µg/plate, zero-dose 402/395/336) was 507/473 and the Rev/plate ([7]; TA104 +S9, Test 3, 1 µg/plate, zero-dose 402/395/336) was 571/559. The Rev/plate ([7]; TA104 +S9, Test 3, 2 µg/plate, zero-dose 402/395/336) was 604/630, the Rev/plate ([7]; TA104 +S9, Test 3, 5 µg/plate, zero-dose 402/395/336) was 535/679 and the “Mutagenic potency, Revertants/µg ± S.E., TA104” value ([7]; plate-incorporation, +S9) was 210 ± 84 rev/µg. For the same compound, the “Abasic sites/10^5 nucleotides ± S.E” value [8] was 6.2 ± 0.26 sites/10^5 nucleotides.
